Measured values taken from patent publication US20250066389A1, “HETEROCYCLIC AMIDES AND METHODS OF USING THE SAME” (Rgenta Therapeutics, Inc., priority 2021, published 2025).
Counter-ions that a name gives are not always drawn.

System: PMS1
Test: Mini-Gene Reporter Assay—PMS1 (firefly luciferase mini-gene reporter transiently transfected into HEK293 cells)
Type: cell-based
Settings: Homo sapiens; at 5 uM; mini-gene firefly luciferase reporter in HEK293 cells; read-out: PMS1 % Effect at 5 uM
Source text: Example 76. Mini-Gene Reporter Assay—PMS1
Mini-gene reporter constructs for each target site can be constructed by first PCR amplifying the region-of-interest including the sequence of the alternatively skipped, sequences of the immediate upstream and downstream introns, and sequences of the immediate upstream and downstream exons. Then the 3′ end of the amplified sequence can be ligated to a firefly luciferase reporter gene and cloned into the pcDNA3.1 vector backbone. The final reporter construct can be transiently transfected into HEK293 cells using Lipofectamine 3000 transfection reagents. Compounds that can induce the inclusion of the skipped exon in the reporter construct would increase the reporter firefly luciferase activity.
Test compounds may be diluted in duplicates and dispensed into an assay plate. Transient mini-gene reporter cell line stock is resuspended and dispensed into the assay plate. Assay plates are then centrifuged and incubated. A luciferase reagent (e.g. ONE-Glo firefly luciferase reagent from Promega®) may be added to the assay plate and the luminescence (RLU) signals recorded. EC50 values may be determined by curve fitting in Levenberg-Marquardt algorithm.
In Table D below, A indicates a IC50 (μM)<1 μM, B indicates a IC50 (μM) 1 μM to <10 μM, and C indicates a IC50 (μM) 10 μM to <50 μM. In Table D below, A indicates a >75% Effect at 5 μM μM. B indicates a 50 to <75% Effect at 5 μM μM, and C indicates a <50% Effect at 5 μM.

Row | SMILES | activation at 5 µM
1 | COc1cc2nc(C)cn2cc1C(=O)Nc1ccc(N2C[C@H]3CNC[C@H]3C2)cc1F [Compound 161, N-(2-fluoro-4-((3aR,6aS)-hexahydropyrrolo[3,4-c]pyrrol-2(1H)-yl)phenyl)-7-methoxy-2-methylimidazo[1,2-a]pyridine-6-carboxamide] | > 75%
2 | COc1cc2nc(C)cn2cc1C(=O)Nc1ccc(N2CC(C)NCC2C)cc1F (centres unmarked) [Compound 163, N-(4-(2,5-dimethylpiperazin-1-yl)-2-fluorophenyl)-7-methoxy-2-methylimidazo[1,2-a]pyridine-6-carboxamide] | > 75%
3 | CNC1CCN(c2ccc(NC(=O)c3cn4cc(C)nc4cc3OC)c(F)c2)CC1 [Compound 164, N-(2-fluoro-4-(4-(methylamino)piperidin-1-yl)phenyl)-7-methoxy-2-methylimidazo[1,2-a]pyridine-6-carboxamide] | > 75%
4 | CNCC1CCN(c2ccc(NC(=O)c3cn4cc(C)nc4cc3OC)c(F)c2)C1 (centres unmarked) [Compound 166, N-(2-fluoro-4-(3-((methylamino)methyl)pyrrolidin-1-yl)phenyl)-7-methoxy-2-methylimidazo[1,2-a]pyridine-6-carboxamide] | < 50%
5 | CNC1CCCN(c2ccc(NC(=O)c3cn4cc(C)nc4cc3OC)c(F)c2)C1 (centres unmarked) [Compound 167, N-(2-fluoro-4-(3-(methylamino)piperidin-1-yl)phenyl)-7-methoxy-2-methylimidazo[1,2-a]pyridine-6-carboxamide] | 50 to 75%
6 | CCNC1CCN(c2ccc(NC(=O)c3cn4cc(C)nc4cc3OC)c(F)c2)C1 (centres unmarked) [Compound 168, N-(4-(3-(ethylamino)pyrrolidin-1-yl)-2-fluorophenyl)-7-methoxy-2-methylimidazo[1,2-a]pyridine-6-carboxamide] | > 75%
7 | COc1cc2nc(C)cn2cc1C(=O)Nc1ccc(N(C)C2CCNCC2)cc1F [Compound 169, N-(2-fluoro-4-(methyl(piperidin-4-yl)amino)phenyl)-7-methoxy-2-methylimidazo[1,2-a]pyridine-6-carboxamide] | 50 to 75%
8 | COc1cc2nc(C)cn2cc1C(=O)Nc1ccc(N2CCC3CC2CN3)cc1F (centres unmarked) [Compound 170, N-(4-(2,6-diazabicyclo[3.2.1]octan-2-yl)-2-fluorophenyl)-7-methoxy-2-methylimidazo[1,2-a]pyridine-6-carboxamide] | > 75%
9 | COc1cc2nc(C)cn2cc1C(=O)Nc1ccc(N2CCC3(CCN3)C2)cc1F (centres unmarked) [Compound 171, N-(2-fluoro-4-(1,6-diazaspiro[3.4]octan-6-yl)phenyl)-7-methoxy-2-methylimidazo[1,2-a]pyridine-6-carboxamide] | > 75%
10 | COc1cc2nc(C)cn2cc1C(=O)Nc1ccc(N2CCC3(CC2)COC(C)CN3)cc1F (centres unmarked) [Compound 172, N-(2-fluoro-4-(3-methyl-4-oxa-1,9-diazaspiro[5.5]undecan-9-yl)phenyl)-7-methoxy-2-methylimidazo[1,2-a]pyridine-6-carboxamide] | 50 to 75%
11 | CCOc1cc2nn(C)cc2cc1C(=O)Nc1ccc(N2CCN[C@@H](C)C2)nn1 [Compound 208, (S)-6-ethoxy-2-methyl-N-(6-(3-methylpiperazin-1-yl)pyridazin-3-yl)-2H-indazole-5-carboxamide HCl Salt] | > 75%

Same assay, conditions: Homo sapiens; mini-gene firefly luciferase reporter in HEK293 cells

Row | SMILES | IC50
12 | COc1cc2nc(C)cn2cc1C(=O)Nc1ccc(N2CC3CCC(C2)N3)cc1F [Compound 165, N-(4-(3,8-diazabicyclo[3.2.1]octan-3-yl)-2-fluorophenyl)-7-methoxy-2-methylimidazo[1,2-a]pyridine-6-carboxamide] | < 1 µM
13 | COc1cc2nc(C)cn2cc1C(=O)Nc1ccc(N2CCNC(CC(F)F)C2)cc1F (centres unmarked) [Compound 173, N-(4-(3-(2,2-difluoroethyl)piperazin-1-yl)-2-fluorophenyl)-7-methoxy-2-methylimidazo[1,2-a]pyridine-6-carboxamide] | 1 to 10 µM
14 | COc1cc2nc(C)cn2cc1C(=O)Nc1ccc(N2CCCNCC2)cc1F [Compound 175, N-(4-(1,4-diazepan-1-yl)-2-fluorophenyl)-7-methoxy-2-methylimidazo[1,2-a]pyridine-6-carboxamide] | < 1 µM
15 | CNC1CCN(c2ccc(NC(=O)c3cn4cc(C)nc4cc3OC)c(F)c2)C1 (centres unmarked) [Compound 176, N-(2-fluoro-4-(3-(methylamino)pyrrolidin-1-yl)phenyl)-7-methoxy-2-methylimidazo[1,2-a]pyridine-6-carboxamide] | < 1 µM
16 | COc1cc2nc(C)cn2cc1C(=O)Nc1ccc(N2CCNCC2C)cc1F (centres unmarked) [Compound 177, N-(2-fluoro-4-(2-methylpiperazin-1-yl)phenyl)-7-methoxy-2-methylimidazo[1,2-a]pyridine-6-carboxamide] | < 1 µM
17 | COc1cc2nc(C)cn2cc1C(=O)Nc1ccc(N(C)C2CCNC2)cc1F (centres unmarked) [Compound 178, N-(2-fluoro-4-(methyl(pyrrolidin-3-yl)amino)phenyl)-7-methoxy-2-methylimidazo[1,2-a]pyridine-6-carboxamide] | < 1 µM
18 | COc1cc2nc(C)cn2cc1C(=O)Nc1ccc(N2CCNC(C)C2)cc1F (centres unmarked) [Compound 179, N-(2-fluoro-4-(3-methylpiperazin-1-yl)phenyl)-7-methoxy-2-methylimidazo[1,2-a]pyridine-6-carboxamide] | < 1 µM
19 | COc1cc2nc(C)cn2cc1C(=O)Nc1ccc(N(C)C2CNC2)cc1F [Compound 180, N-(4-(azetidin-3-yl(methyl)amino)-2-fluorophenyl)-7-methoxy-2-methylimidazo[1,2-a]pyridine-6-carboxamide] | < 1 µM
20 | COc1cc2nc(C)cn2cc1C(=O)Nc1cnc(N2CCN[C@@H](C)C2)cn1 [Compound 198, (S)-7-methoxy-2-methyl-N-(5-(3-methylpiperazin-1-yl)pyrazin-2-yl)imidazo[1,2-a]pyridine-6-carboxamide hydrochloride] | < 1 µM
21 | Cc1cn2cc(C(=O)Nc3ccc(N4CCN[C@@H](C)C4)nn3)c(OC(C)C)cc2n1 [Compound 199, (S)-7-isopropoxy-2-methyl-N-(6-(3-methylpiperazin-1-yl)pyridazin-3-yl)imidazo[1,2-a]pyridine-6-carboxamide] | < 1 µM
22 | Cc1cn2cc(C(=O)Nc3ccc(N4CCNCC4)nn3)c(OC3CCC3)cc2n1 [Compound 205, 7-cyclobutoxy-2-methyl-N-(6-(piperazin-1-yl)pyridazin-3-yl)imidazo[1,2-a]pyridine-6-carboxamide hydrochloride] | < 1 µM
23 | Cc1cn2cc(C(=O)Nc3ccc(N4CCN[C@@H](C)C4)nn3)c(OC3CCOC3)cc2n1 (stereo partly drawn) [Compound 206, 2-methyl-N-(6-((S)-3-methylpiperazin-1-yl)pyridazin-3-yl)-7-((tetrahydrofuran-3-yl)oxy)imidazo[1,2-a]pyridine-6-carboxamide hydrochloride] | < 1 µM
24 | Cn1cc2cc(C(=O)Nc3ccc(N4CCNCC4)nn3)c(OC3CCC3)cc2n1 [Compound 207, 6-cyclobutoxy-2-methyl-N-(6-(piperazin-1-yl)pyridazin-3-yl)-2H-indazole-5-carboxamide HCl Salt] | < 1 µM
25 | CCOc1cc2nn(C)cc2cc1C(=O)Nc1ccc(N2CCN[C@@H](C)C2)nn1 [Compound 208, (S)-6-ethoxy-2-methyl-N-(6-(3-methylpiperazin-1-yl)pyridazin-3-yl)-2H-indazole-5-carboxamide HCl Salt] | < 1 µM
26 | C[C@H]1CN(c2ccc(NC(=O)c3cc4cn(C)nc4cc3OC3CCC3)nn2)CCN1 [Compound 209, (S)-6-cyclobutoxy-2-methyl-N-(6-(3-methylpiperazin-1-yl)pyridazin-3-yl)-2H-indazole-5-carboxamide HCl Salt] | < 1 µM
